In ChEMBL document CHEMBL1201862, “PubChem BioAssay data set” (2004):
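Tested at 5 concentrations; 48 h exposure; 96-well plates; endpoints linearly interpolated, else capped at highest concentration. At the GI50, growth is halved.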 Active and inactive are the calls of the source. Rule as the data show it: active = GI50 up to about 1.1 µM and inactive = higher.

How the values were obtained:
Test in all cases: inhibition of tumour cell growth, NCI panel, 48 h
[1] = test system: 786-0
[2] = test system: SK-MEL-5
[3] = test system: NCI-H23
[4] = test system: HCT-15
[5] = test system: SK-MEL-2
[6] = test system: SNB-75
[7] = test system: SF-268
[8] = test system: DU-145
[9] = test system: LOX IMVI
[10] = test system: SR
[11] = test system: KM12
[12] = test system: CCRF-CEM
[13] = test system: CAKI-1
[14] = test system: NCI-H460
[15] = test system: SK-OV-3
[16] = test system: M14
[17] = test system: Hs-578T
[18] = test system: MDA-MB-435
[19] = test system: ACHN
[20] = test system: NCI-H522
[21] = test system: NCI/ADR-RES
[22] = test system: UO-31
[23] = test system: OVCAR-8
[24] = test system: RXF 393
[25] = test system: U-251
[26] = test system: HCC 2998
[27] = test system: MDA-N
[28] = test system: COLO 205
[29] = test system: SW-620
[30] = test system: NCI-H226
[31] = test system: MDA-MB-231
[32] = test system: TK-10
[33] = test system: SF-295
[34] = test system: HOP-62
[35] = test system: Malme-3M
[36] = test system: MOLT-4
[37] = test system: HL-60
[38] = test system: IGROV-1
[39] = test system: OVCAR-4
[40] = test system: K562
[41] = test system: SNB-19
[42] = test system: SF-539
[43] = test system: A549
[44] = test system: UACC-62
[45] = test system: HT-29
[46] = test system: BT-549
[47] = test system: OVCAR-5
[48] = test system: UACC-257
[49] = test system: OVCAR-3
[50] = test system: EKVX
[51] = test system: PC-3
[52] = test system: HCT-116
[53] = test system: SK-MEL-28
[54] = test system: HOP-92
[55] = test system: RPMI-8226
[56] = test system: MCF7
[57] = test system: SN12C
[58] = test system: A498

CC(Cc1ccc(O)cn1)(NC(=O)c1ccccc1)C(=O)O (stereo not drawn)
GI50 [1]: > 100 µM (inactive)
GI50 [2]: > 100 µM (inactive)
GI50 [3]: > 100 µM (inactive)
GI50 [4]: > 100 µM
GI50 [5]: > 100 µM (inactive)
GI50 [6]: 40.4 µM (inactive)
GI50 [7]: > 100 µM (inactive)
GI50 [8]: > 100 µM (inactive)
GI50 [9]: > 100 µM (inactive)
GI50 [10]: > 100 µM (inactive)
GI50 [11]: > 100 µM (inactive)
GI50 [12]: > 100 µM (inactive)
GI50 [13]: > 100 µM (inactive)
GI50 [14]: > 100 µM (inactive)
GI50 [15]: > 100 µM (inactive)
GI50 [16]: > 100 µM (inactive)
GI50 [17]: > 100 µM (inactive)
GI50 [18]: > 100 µM (inactive)
GI50 [19]: > 100 µM (inactive)
GI50 [20]: > 100 µM (inactive)
GI50 [21]: > 100 µM (inactive)
GI50 [22]: > 100 µM (inactive)
GI50 [23]: > 100 µM (inactive)
GI50 [24]: > 100 µM (inactive)
GI50 [25]: > 100 µM (inactive)
GI50 [26]: > 100 µM (inactive)
GI50 [27]: > 100 µM (inactive)
GI50 [28]: > 100 µM (inactive)
GI50 [29]: > 100 µM (inactive)
GI50 [30]: > 100 µM (inactive)
GI50 [31]: > 100 µM (inactive)
GI50 [32]: > 100 µM (inactive)
GI50 [33]: > 100 µM (inactive)
GI50 [34]: > 100 µM (inactive)
GI50 [35]: > 100 µM (inactive)
GI50 [36]: > 100 µM (inactive)
GI50 [37]: > 100 µM (inactive)
GI50 [38]: > 100 µM (inactive)
GI50 [39]: > 100 µM (inactive)
GI50 [40]: > 100 µM (inactive)
GI50 [41]: > 100 µM (inactive)
GI50 [42]: > 100 µM (inactive)
GI50 [43]: > 100 µM (inactive)
GI50 [44]: > 100 µM (inactive)
GI50 [45]: > 100 µM (inactive)
GI50 [46]: > 100 µM (inactive)
GI50 [47]: > 100 µM (inactive)
GI50 [48]: > 100 µM (inactive)
GI50 [49]: > 100 µM (inactive)
GI50 [50]: > 100 µM (inactive)
GI50 [51]: > 100 µM (inactive)
GI50 [52]: > 100 µM (inactive)
GI50 [53]: > 100 µM (inactive)
GI50 [54]: 74 µM (inactive)
GI50 [55]: > 100 µM (inactive)

CC(C)(C)/N=c1/n(C(C)(C)C)oc(=O)n1C(C)(C)C
GI50 [1]: > 100 µM (inactive)
GI50 [2]: > 100 µM (inactive)
GI50 [3]: 81.1 µM (inactive)
GI50 [4]: > 100 µM
GI50 [5]: > 100 µM (inactive)
GI50 [6]: 99.5 µM (inactive)
GI50 [9]: > 100 µM (inactive)
GI50 [10]: > 100 µM (inactive)
GI50 [11]: > 100 µM (inactive)
GI50 [12]: > 100 µM (inactive)
GI50 [13]: > 100 µM (inactive)
GI50 [14]: > 100 µM (inactive)
GI50 [15]: > 100 µM (inactive)
GI50 [16]: > 100 µM (inactive)
GI50 [17]: > 100 µM (inactive)
GI50 [19]: > 100 µM (inactive)
GI50 [56]: > 100 µM (inactive)
GI50 [21]: > 100 µM (inactive)
GI50 [22]: > 100 µM (inactive)
GI50 [23]: > 100 µM (inactive)
GI50 [24]: > 100 µM (inactive)
GI50 [25]: > 100 µM (inactive)
GI50 [26]: > 100 µM (inactive)
GI50 [27]: > 100 µM (inactive)
GI50 [28]: > 100 µM (inactive)
GI50 [29]: > 100 µM (inactive)
GI50 [30]: > 100 µM (inactive)
GI50 [57]: > 100 µM (inactive)
GI50 [31]: > 100 µM (inactive)
GI50 [32]: > 100 µM (inactive)
GI50 [33]: > 100 µM (inactive)
GI50 [34]: > 100 µM (inactive)
GI50 [35]: > 100 µM (inactive)
GI50 [36]: > 100 µM (inactive)
GI50 [37]: > 100 µM (inactive)
GI50 [38]: > 100 µM (inactive)
GI50 [39]: > 100 µM (inactive)
GI50 [40]: > 100 µM (inactive)
GI50 [41]: > 100 µM (inactive)
GI50 [42]: > 100 µM (inactive)
GI50 [43]: > 100 µM (inactive)
GI50 [44]: > 100 µM (inactive)
GI50 [45]: > 100 µM (inactive)
GI50 [46]: > 100 µM (inactive)
GI50 [47]: > 100 µM (inactive)
GI50 [58]: > 100 µM (inactive)
GI50 [48]: > 100 µM (inactive)
GI50 [49]: > 100 µM (inactive)
GI50 [50]: > 100 µM (inactive)
GI50 [51]: > 100 µM (inactive)
GI50 [52]: > 100 µM (inactive)
GI50 [53]: > 100 µM (inactive)
GI50 [54]: > 100 µM (inactive)
